From patent US8686113B2 (priority 2009, dated 2014)
Converted amounts (≈) assume the structure as drawn. Non-standard residues stand in square brackets, D forms with d. Residues, ends and D or L forms follow the SMILES beside them. Arg(NO2) = N=C(NCCC[C@H](N)C(=O)O)N[N+](=O)[O-]; NMeR = CN[C@@H](CCCNC(=N)N)C(=O)O; hArg = N=C(N)NCCCC[C@H](N)C(=O)O; β3hR = N=C(N)NCCC[C@H](N)CC(=O)O; Agp = N=C(N)NC[C@H](N)C(=O)O; Orn = NCCC[C@H](N)C(=O)O; Dap = NC[C@H](N)C(=O)O

Columns and labels:
E. coli BL21 A1 = type: cell-based, Escherichia coli; conditions: BL21, 20 h
Procedure: (§1) The minimum inhibitory concentrations (MIC) of the antimicrobial peptides and peptide derivatives were determined in microdilution assays. These used a continuous peptide dilution in sterile flat-bottomed 96-well microtiter plates (polystyrene, Greiner Bio-One GmbH, Frickenhausen, Germany) and a total volume of 100 μL per well. The aqueous peptide or peptidomimetic solutions were diluted with 1% TSB water, to obtain a final concentration of 256 μg/mL. 50 μL of the peptide or peptidomimetic solution was pipetted into the first well of each series and stirred. From this solution, 50 μL was transferred to the second well, stirred and again 50 μL was transferred to the next well, and so on. A double dilution series is obtained, beginning at 256 μg/mL in the first well to 125 ng/mL in the twelfth well. The bacteria, e.g. E. coli BL21 A1, were cultured overnight at 37° C. in nutrient broth (NB, Carl Roth GmbH+Co. KG, Karlsruhe, Germany). 50 μL of a 5×10^6 bacteria/mL suspension in 1% TSB was added to each well of the microtiter plate and thus a final concentration of the peptides or peptidomimetics from 128 μg/mL (well 1) to 62.5 ng/mL (well 12) was established in each series. The plates were incubated at 37° C. for 20 h and then the absorption was measured at 595 nm with a TECAN microtiter plate spectrophotometer (Tecan Trading AG, Mannedorf, Switzerland). The MIC values of all peptides and peptidomimetics were determined in triplicate. Sterile water was used as negative control. The MIC value represents the lowest peptide concentration at which no bacterial growth is observed after an incubation time of 20 h at 37° C.
(§2) The MIC values of the peptides and peptide derivatives against Escherichia coli BL21 A1 and Micrococcus luteus ATCC 10240 are given in Table 7.

M. luteus 10240 = assay: Growth inhibition assay (microdilution MIC); type: cell-based, Micrococcus luteus; conditions: 10240, 20 h
Procedure: as §1, §2

Structure (SMILES) | MIC E. coli BL21 A1 (E. coli BL21 A1) [µg/mL] | MIC M. luteus 10240 (M. luteus 10240) [µg/mL]
CC[C@H](C)[C@H](NC(=O)[C@H](CCCNC(=N)N)NC(=O)[C@H](CCCNC(=N)N)NC(=O)[C@@H]1CCCN1C(=O)[C@@H]1CCCN1C(=O)[C@H](CCCNC(=N)N)NC(=O)[C@@H]1CCCN1C(=O)[C@H](CCCNC(=N)N)NC(=O)[C@@H]1CCCN1C(=O)[C@H](CC(C)C)NC(=O)[C@H](Cc1ccc(O)cc1)NC(=O)[C@@H]1CCCN1C(=O)[C@@H]1CCCN1C(=O)[C@H](CCCCN)NC(=O)[C@H](CC(=O)O)NC(=O)[C@@H](N)C(C)C)C(=O)N[C@@H](Cc1ccc(O)cc1)C(=O)N[C@@H](CC(N)=O)C(=O)N[C@@H](CNC(C)=O)C(N)=O [compound 52] (H-VDKPPYLPRPRPPRRIYN[Dap](Ac)-NH2; N-terminus assumed) | 32 (≈ 13.5 µM) | 64 (≈ 27.1 µM)
CC[C@H](C)[C@H](NC(=O)[C@H](CCCNC(=N)N)NC(=O)[C@H](CCCNC(=N)N)NC(=O)[C@@H]1CCCN1C(=O)[C@@H]1CCCN1C(=O)[C@H](CCCNC(=N)N)NC(=O)[C@@H]1CCCN1C(=O)[C@H](CCCNC(=N)N)NC(=O)[C@@H]1CCCN1C(=O)[C@H](CC(C)C)NC(=O)[C@H](Cc1ccc(O)cc1)NC(=O)[C@@H]1CCCN1C(=O)[C@@H]1CCCN1C(=O)[C@H](CCCCN)NC(=O)[C@H](CC(=O)O)NC(=O)[C@@H](N)C(C)C)C(=O)N[C@@H](Cc1ccc(O)cc1)C(=O)N[C@@H](CC(N)=O)C(=O)N[C@@H](CCCCNC(=N)N)C(N)=O [compound 57] (H-VDKPPYLPRPRPPRRIYN[hArg]-NH2) | 8 (≈ 3.33 µM) | 8 (≈ 3.33 µM)
CC[C@H](C)[C@H](NC(=O)C[C@H](CCCNC(=N)N)NC(=O)[C@H](CCCNC(=N)N)NC(=O)[C@@H]1CCCN1C(=O)[C@@H]1CCCN1C(=O)[C@H](CCCNC(=N)N)NC(=O)[C@@H]1CCCN1C(=O)[C@H](CCCNC(=N)N)NC(=O)[C@@H]1CCCN1C(=O)[C@H](CC(C)C)NC(=O)[C@H](Cc1ccc(O)cc1)NC(=O)[C@@H]1CCCN1C(=O)[C@@H]1CCCN1C(=O)[C@H](CCCCN)NC(=O)[C@H](CC(=O)O)NC(=O)[C@@H](N)C(C)C)C(=O)N[C@@H](Cc1ccc(O)cc1)C(=O)N[C@@H](CC(N)=O)C(=O)N[C@@H](CCCNC(=N)N)C(N)=O [compound 62] (H-VDKPPYLPRPRPPR[β3hR]IYNR-NH2) | 4 (≈ 1.66 µM) | 16 (≈ 6.66 µM)
CC[C@H](C)[C@H](NC(=O)[C@H](CNC(=N)N)NC(=O)[C@H](CCCNC(=N)N)NC(=O)[C@@H]1CCCN1C(=O)[C@@H]1CCCN1C(=O)[C@H](CCCNC(=N)N)NC(=O)[C@@H]1CCCN1C(=O)[C@H](CCCNC(=N)N)NC(=O)[C@@H]1CCCN1C(=O)[C@H](CC(C)C)NC(=O)[C@H](Cc1ccc(O)cc1)NC(=O)[C@@H]1CCCN1C(=O)[C@@H]1CCCN1C(=O)[C@H](CCCCN)NC(=O)[C@H](CC(=O)O)NC(=O)[C@@H](N)C(C)C)C(=O)N[C@@H](Cc1ccc(O)cc1)C(=O)N[C@@H](CC(N)=O)C(=O)N[C@@H](CCCCNC(=N)N)C(N)=O [compound 65] (H-VDKPPYLPRPRPPR[Agp]IYN[hArg]-NH2) | 4 (≈ 1.68 µM) | 2 (≈ 0.842 µM)
CC[C@H](C)[C@H](NC(=O)[C@H](CCCN)NC(=O)[C@H](CCCNC(=N)N)NC(=O)[C@@H]1CCCN1C(=O)[C@@H]1CCCN1C(=O)[C@H](CCCNC(=N)N)NC(=O)[C@@H]1CCCN1C(=O)[C@H](CCCNC(=N)N)NC(=O)[C@@H]1CCCN1C(=O)[C@H](CC(C)C)NC(=O)[C@H](Cc1ccc(O)cc1)NC(=O)[C@@H]1CCCN1C(=O)[C@@H]1CCCN1C(=O)[C@H](CCCCN)NC(=O)[C@H](CC(=O)O)NC(=O)[C@@H](N)C(C)C)C(=O)N[C@@H](Cc1ccc(O)cc1)C(=O)N[C@@H](CC(N)=O)C(=O)N[C@@H](CNC(=N)N)C(N)=O [compound 69] (H-VDKPPYLPRPRPPR[Orn]IYN[Agp]-NH2) | 4 (≈ 1.72 µM) | 4 (≈ 1.72 µM)
CC[C@H](C)[C@H](NC(=O)[C@H](CCCN)NC(=O)[C@H](CCCNC(=N)N)NC(=O)[C@@H]1CCCN1C(=O)[C@@H]1CCCN1C(=O)[C@H](CCCNC(=N)N)NC(=O)[C@@H]1CCCN1C(=O)[C@H](CCCNC(=N)N)NC(=O)[C@@H]1CCCN1C(=O)[C@H](CC(C)C)NC(=O)[C@H](Cc1ccc(O)cc1)NC(=O)[C@@H]1CCCN1C(=O)[C@@H]1CCCN1C(=O)[C@H](CCCCN)NC(=O)[C@H](CC(=O)O)NC(=O)[C@@H](N)C(C)C)C(=O)N[C@@H](Cc1ccc(O)cc1)C(=O)N[C@@H](CC(N)=O)C(=O)N[C@@H](CCCCNC(=N)N)C(N)=O [compound 70] (H-VDKPPYLPRPRPPR[Orn]IYN[hArg]-NH2) | 4 (≈ 1.69 µM) | 4 (≈ 1.69 µM)

Now from value to compound:

MIC E. coli BL21 A1 (E. coli BL21 A1) [µg/mL] | MIC M. luteus 10240 (M. luteus 10240) [µg/mL] | Structure (SMILES)
8 (≈ 3.39 µM) | 8 (≈ 3.39 µM) | CC[C@H](C)[C@H](NC(=O)[C@H](CCCNC(=N)N)NC(=O)[C@H](CCCNC(=N)N)NC(=O)[C@@H]1CCCN1C(=O)[C@@H]1CCCN1C(=O)[C@H](CCCNC(=N)N)NC(=O)[C@@H]1CCCN1C(=O)[C@H](CCCNC(=N)N)NC(=O)[C@@H]1CCCN1C(=O)[C@H](CC(C)C)NC(=O)[C@H](Cc1ccc(O)cc1)NC(=O)[C@@H]1CCCN1C(=O)[C@@H]1CCCN1C(=O)[C@H](CCCCN)NC(=O)[C@H](CC(=O)O)NC(=O)[C@@H](N)C(C)C)C(=O)N[C@@H](Cc1ccc(O)cc1)C(=O)N[C@@H](CC(N)=O)C(=O)N[C@@H](CNC(=N)N)C(N)=O [compound 54] (H-VDKPPYLPRPRPPRRIYN[Agp]-NH2)
8 (≈ 3.29 µM) | 16 (≈ 6.57 µM) | CC[C@H](C)[C@H](NC(=O)[C@H](CCCNC(=N)N)NC(=O)[C@H](CCCNC(=N)N)NC(=O)[C@@H]1CCCN1C(=O)[C@@H]1CCCN1C(=O)[C@H](CCCNC(=N)N)NC(=O)[C@@H]1CCCN1C(=O)[C@H](CCCNC(=N)N)NC(=O)[C@@H]1CCCN1C(=O)[C@H](CC(C)C)NC(=O)[C@H](Cc1ccc(O)cc1)NC(=O)[C@@H]1CCCN1C(=O)[C@@H]1CCCN1C(=O)[C@H](CCCCN)NC(=O)[C@H](CC(=O)O)NC(=O)[C@@H](N)C(C)C)C(=O)N[C@@H](Cc1ccc(O)cc1)C(=O)N[C@@H](CC(N)=O)C(=O)N[C@@H](CCCNC(=N)N[N+](=O)[O-])C(N)=O [compound 55] (H-VDKPPYLPRPRPPRRIYN[Arg(NO2)]-NH2)
8 (≈ 3.33 µM) | 4 (≈ 1.66 µM) | CC[C@H](C)[C@H](NC(=O)[C@H](CCCNC(=N)N)NC(=O)[C@H](CCCNC(=N)N)NC(=O)[C@@H]1CCCN1C(=O)[C@@H]1CCCN1C(=O)[C@H](CCCNC(=N)N)NC(=O)[C@@H]1CCCN1C(=O)[C@H](CCCNC(=N)N)NC(=O)[C@@H]1CCCN1C(=O)[C@H](CC(C)C)NC(=O)[C@H](Cc1ccc(O)cc1)NC(=O)[C@@H]1CCCN1C(=O)[C@@H]1CCCN1C(=O)[C@H](CCCCN)NC(=O)[C@H](CC(=O)O)NC(=O)[C@@H](N)C(C)C)C(=O)N[C@@H](Cc1ccc(O)cc1)C(=O)N[C@@H](CC(N)=O)C(=O)N(C)[C@@H](CCCNC(=N)N)C(N)=O [compound 56] (H-VDKPPYLPRPRPPRRIYN[NMeR]-NH2; N-terminus assumed)
8 (≈ 3.43 µM) | 4 (≈ 1.71 µM) | CC[C@H](C)[C@H](NC(=O)[C@H](CNC(=N)N)NC(=O)[C@H](CCCNC(=N)N)NC(=O)[C@@H]1CCCN1C(=O)[C@@H]1CCCN1C(=O)[C@H](CCCNC(=N)N)NC(=O)[C@@H]1CCCN1C(=O)[C@H](CCCNC(=N)N)NC(=O)[C@@H]1CCCN1C(=O)[C@H](CC(C)C)NC(=O)[C@H](Cc1ccc(O)cc1)NC(=O)[C@@H]1CCCN1C(=O)[C@@H]1CCCN1C(=O)[C@H](CCCCN)NC(=O)[C@H](CC(=O)O)NC(=O)[C@@H](N)C(C)C)C(=O)N[C@@H](Cc1ccc(O)cc1)C(=O)N[C@@H](CC(N)=O)C(=O)N[C@@H](CNC(=N)N)C(N)=O [compound 66] (H-VDKPPYLPRPRPPR[Agp]IYN[Agp]-NH2)
4 (≈ 1.68 µM) | 4 (≈ 1.68 µM) | CC[C@H](C)[C@H](NC(=O)[C@H](CCCCNC(=N)N)NC(=O)[C@H](CCCNC(=N)N)NC(=O)[C@@H]1CCCN1C(=O)[C@@H]1CCCN1C(=O)[C@H](CCCNC(=N)N)NC(=O)[C@@H]1CCCN1C(=O)[C@H](CCCNC(=N)N)NC(=O)[C@@H]1CCCN1C(=O)[C@H](CC(C)C)NC(=O)[C@H](Cc1ccc(O)cc1)NC(=O)[C@@H]1CCCN1C(=O)[C@@H]1CCCN1C(=O)[C@H](CCCCN)NC(=O)[C@H](CC(=O)O)NC(=O)[C@@H](N)C(C)C)C(=O)N[C@@H](Cc1ccc(O)cc1)C(=O)N[C@@H](CC(N)=O)C(=O)N[C@@H](CNC(=N)N)C(N)=O [compound 68] (H-VDKPPYLPRPRPPR[hArg]IYN[Agp]-NH2)
>256 | 16 (≈ 6.24 µM) | CC[C@H](C)[C@H](NC(=O)[C@H](CCCNC(=N)N)NC(=O)[C@H](CCCNC(=N)N)NC(=O)[C@@H]1CCCN1C(=O)[C@@H]1CCCN1C(=O)[C@H](CCCNC(=N)N)NC(=O)[C@@H]1CCCN1C(=O)[C@H](CCCNC(=N)N)NC(=O)[C@@H]1CCCN1C(=O)[C@H](CC(C)C)NC(=O)[C@H](Cc1ccc(O)cc1)NC(=O)[C@@H]1CCCN1C(=O)[C@@H]1CCCN1C(=O)[C@H](CCCCN)NC(=O)[C@H](CC(=O)O)NC(=O)[C@@H](NC(=O)[C@@H](CS)NC(=O)[C@H](C)N)C(C)C)C(=O)N[C@@H](Cc1ccc(O)cc1)C(=O)N[C@@H](CC(N)=O)C(=O)N[C@@H](CCCNC(=N)N)C(=O)O [compound 80] (H-A[dC]VDKPPYLPRPRPPRRIYNR-OH)
